Test results: patent US10017481B2, “Conformationally constrained, fully synthetic macrocyclic compounds” (POLYPHOR AG, priority 2012, dated 2018)
Like-named read-outs stand apart in the source and are kept apart here.

Tests used:
[1] = molecular target: T1, Human recombinant cathepsin S (Homo sapiens, UniProt P25774); details: reference compound of the CatS assay; 0.1 μg/ml enzyme, acetate buffer pH 4.5, 25° C.; cited from earlier work
T1 construct: host or cells: murine myeloma NS0 cells

[2] = molecular target: T2, Human recombinant ECE-1 (Homo sapiens, UniProt P42892); assay: Endothelin converting enzyme-1 (ECE-1) enzyme assay; format: biochemical; details: for inhibition at 10 µM: read-out: % Inhibition at 10 μM
T2 construct: host or cells: murine myeloma NS0 cells
T2 sequence (P42892 1-770): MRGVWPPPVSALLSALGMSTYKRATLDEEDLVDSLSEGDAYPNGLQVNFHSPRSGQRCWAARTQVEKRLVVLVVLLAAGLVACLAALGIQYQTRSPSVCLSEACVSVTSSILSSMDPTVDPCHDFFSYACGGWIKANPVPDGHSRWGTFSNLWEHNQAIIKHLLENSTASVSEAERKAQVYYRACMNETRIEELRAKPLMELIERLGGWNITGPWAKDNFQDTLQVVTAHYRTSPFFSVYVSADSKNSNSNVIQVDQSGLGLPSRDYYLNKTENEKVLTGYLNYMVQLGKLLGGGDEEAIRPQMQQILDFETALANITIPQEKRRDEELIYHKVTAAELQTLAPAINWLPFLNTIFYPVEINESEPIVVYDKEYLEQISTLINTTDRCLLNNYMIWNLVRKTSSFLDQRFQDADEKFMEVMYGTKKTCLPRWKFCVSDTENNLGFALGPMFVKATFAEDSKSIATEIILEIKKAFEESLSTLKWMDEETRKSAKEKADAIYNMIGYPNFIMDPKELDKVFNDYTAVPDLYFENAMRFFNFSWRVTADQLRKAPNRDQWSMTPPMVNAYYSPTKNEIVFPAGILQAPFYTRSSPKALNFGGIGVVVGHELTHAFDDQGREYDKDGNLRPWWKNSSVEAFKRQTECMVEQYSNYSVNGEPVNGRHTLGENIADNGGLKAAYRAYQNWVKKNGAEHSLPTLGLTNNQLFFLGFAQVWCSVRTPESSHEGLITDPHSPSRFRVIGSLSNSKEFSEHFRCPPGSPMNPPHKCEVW
Experimental: (§1) 2. Enzyme Assays for the Peptidase Endothelin Converting Enzyme-1 (ECE-1) and for the Cysteine Protease Cathepsin S (CatS)
(§2) The assays were performed according to provider's (Ricerca Biosciences, LLC) protocols which in turn are based on literature procedures (for ECE-1 cf.: O. Valdenaire et al., Eur. J. Biochem. 1999, 264, 341-349; F. D. Russell, A. P. Davenport, Circ. Res. 1999, 84, 891-896; and for CatS: G P Shi et al., J. Biol. Chem. 1992, 267, 7258-62; D Brömme et al., J. Biol. Chem. 1993 268, 4832-4838.).
Human recombinant ECE-1 expressed in murine myeloma cells NS0 is used. Test compound and/or vehicle is preincubated with 20 ng/ml enzyme in modified MES buffer pH 6.0 for 15 minutes at 25° C. The reaction is initiated by addition of […] Mca-[…]Dnp) for another 60 minutes' incubation period. Determination of the amount of Mca-Arg-Pro-Pro-Gly-Phe-Ser-Ala formed is read […] at 320 nm/405 nm. Compounds are screened at […].
IC50 values were determined by a non-linear, least squares regression analysis using MathIQ™ (ID Business Solutions Ltd., UK). […] The Hill coefficient (nH), defining the slope of the competitive binding curve, was calculated using MathIQ™.

[3] = molecular target: T1, Human recombinant cathepsin S; assay: Cathepsin S (CatS) enzyme assay; format: biochemical; details: for inhibition at 10 µM: 10 μM compound
Experimental: as §1, §2
Human recombinant cathepsin S expressed in a murine myeloma NS0 cells is used. Test compound and/or vehicle is preincubated with 0.1 μg/ml enzyme in modified acetate buffer pH 4.5 for 15 minutes at 25° C. The reaction is initiated by addition of […] Z-Leu-Arg-AMC for another 30 minutes' incubation period. Determination of the amount of AMC formed is read spectrofluorimetrically at 360 nm/465 nm. […]
IC50 values were determined by a non-linear, least squares regression analysis using MathIQ™ (ID Business Solutions Ltd., UK). Inhibition constants K were calculated according to the equation of Cheng and Prusoff (Y. Cheng, W. H. Prusoff, Biochem. Pharmacol. 1973, 22, 3099-3108) using the observed IC50 of the tested compound, the concentration of radioligand employed in the assay, and the historical values for the KD of the ligand. The Hill coefficient (nH), defining the slope of the competitive binding curve, was calculated using MathIQ™.

[4] = molecular target: T3, Bombesin receptor subtype 3 (BB3 receptor) (Homo sapiens, UniProt P32247); assay: Ca2+ flux (FLIPR) assay, BB3 receptor, agonist/antagonist mode; format: cell-based; details: agonist mode
T3 construct: expressed in transfected cells; host or cells: Ca2+ optimized hematopoietic cell lines (rat)
T3 sequence (P32247 1-399): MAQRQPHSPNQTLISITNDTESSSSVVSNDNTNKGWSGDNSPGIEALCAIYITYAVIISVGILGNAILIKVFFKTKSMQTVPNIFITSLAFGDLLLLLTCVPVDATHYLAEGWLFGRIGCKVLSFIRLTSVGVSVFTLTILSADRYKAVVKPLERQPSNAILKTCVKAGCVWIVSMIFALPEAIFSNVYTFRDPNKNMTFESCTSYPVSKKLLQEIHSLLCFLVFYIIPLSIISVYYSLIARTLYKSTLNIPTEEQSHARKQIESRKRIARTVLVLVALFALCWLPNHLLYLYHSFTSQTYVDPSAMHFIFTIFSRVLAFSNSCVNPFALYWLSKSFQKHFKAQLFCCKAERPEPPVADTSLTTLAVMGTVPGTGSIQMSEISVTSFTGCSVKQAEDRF
Experimental: Biological and Pharmacological Methods 1. Ca^2+ Flux Assays for the GPCRs Oxytocin Receptor (OT Receptor), Thyrotropin-Releasing Hormone Receptor (TRH Receptor) and Bombesin Receptor Subtype 3 (BB3 Receptor)
Assays were performed on a FLIPR^TETRA fluorometric imaging plate reader (Molecular Devices) with ScreenWorks Version 2 (Molecular Devices) as device operating and data analysis software.
Dose dependent agonist and antagonist activities were determined. Percentage activation and percentage inhibition values were determined.
Percentage activation was determined upon initial addition of the sample compounds followed by 10 minutes' incubation at 25° C. Following compound incubation, reference agonists were added at EC80 to determine percentage inhibition.
Reference agonists were purchased from reputable commercial vendors and prepared according to each ligand's specifications. All handling of ligands were done to ensure proper control throughout the experiments.
Example compounds were weighed on a Microbalance (Mettler MX5) and dissolved in 100% DMSO to a final concentration of 2.5 mM and subsequently diluted into the assay buffer.
The assay buffer was a supplemented HBSS (Hank's Balanced Salt Solution). HBSS was supplemented with 20 mM HEPES (4-(2-hydroxyethyl)-piperazin-1-ethansulfonic acid) and 2.5 mM Probenecid (Sigma P8761).
GPCR assays were performed using Ca^2+ optimized hematopoietic cell lines (rat) with cultures never exceeding 90% confluency. Cells were harvested and seeded (from cultures at less than 90% confluency) at 50000 cells/well for a 96-well plate (12500 cells/well for 384). After seeding, the assay plates were incubated for 45 minutes at room temperature. After room temperature incubation, the assay plates were incubated at 37° C. 5% CO2 for 24 hours prior to assaying.
All GPCR assays were performed using Fluo-8 Ca^2+ dye.
Ca^2+ dye was prepared at 1× dye concentration in GPCR assay buffer. After 24 hours of incubation, cells were washed with GPCR assay buffer, and then Ca^2+-dye (100 μL/well) was added.
The plates were incubated for 90 minutes at 30° C. 5% CO2 prior to FLIPR assay.
Compound plates were prepared to add 50 μL/well during the agonist assay mode. During the FLIPR assay, 50 μL/well from the compound plate was diluted 3-fold into the existing 100 μL/well from the dye loading step. Therefore all compounds were prepared as 3× the final concentration desired in the assay.
After completion of the first single addition assay run, assay plate was removed from the FLIPR Tetra and placed at 25° C. for 7 minutes before antagonist assay.
Using the EC80 values determined during the agonist assay, all pre-incubated sample compound and reference antagonist (if applicable) wells were stimulated at the EC80 of the reference agonist. As reference ligands for these assays their obvious natural ligands oxytocin (OT), thyrotropin-releasing hormone (TRH) and bombesin (6-14) [BN(6-14)] were used.
After the addition of the reference agonist fluorescence was monitored for 180 sec using FLIPR Tetra.
From the FLIPR data, with negative control correction enabled, the maximum statistic for each well was exported and percentage activation relative to Emax control was calculated.

T1 sequence (P25774 115-331): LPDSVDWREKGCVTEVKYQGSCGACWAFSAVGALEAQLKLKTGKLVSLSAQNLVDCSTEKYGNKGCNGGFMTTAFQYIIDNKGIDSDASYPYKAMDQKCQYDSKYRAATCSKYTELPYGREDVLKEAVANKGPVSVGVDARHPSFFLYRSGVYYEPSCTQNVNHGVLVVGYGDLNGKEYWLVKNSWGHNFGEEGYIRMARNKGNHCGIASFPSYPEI

Row | Structure (SMILES) | IC50 [2] [µM] | inhibition at 10 µM [2] [%] | IC50 [3] [µM] | inhibition at 10 µM [3] [%] | Agonist activity % activation at 12.5 μM [4] [%] | also measured
1 | CC(C)C[C@H](NC(=O)[C@H]1O[C@@H]1C(=O)O)C(=O)NCCCCN=C(N)N [E-64] | – | – | – | – | – | IC50 [1]: 0.0014 µM
2 | CN1CCC[C@H](NC(=O)OCc2ccccc2)C(=O)N2C[C@@H](NC(=O)Cc3ccc4ccccc4c3)C[C@H]2COc2ccccc2-c2cccc(c2)C1=O [Ex. 18, benzyl N-[(10S,12S,16S)-20-methyl-12-{[2-(2-naphthyl)acetyl]amino}-15,21-dioxo-8-oxa-14,20-diazatetracyclo[20.3.1.0^2,7.0^10,14]hexacosa-1(26),2,4,6,22,24-hexaen-16-yl]carbamate] | 3.01 | 98 | 3.65 | 82 | – | –
3 | CN1CCC[C@H](NC(=O)Cc2ccccc2)C(=O)N2C[C@@H](NC(=O)Cc3ccc4ccccc4c3)C[C@H]2COc2ccccc2-c2cccc(c2)C1=O [Ex. 25, N-[(10S,12S,16S)-20-methyl-15,21-dioxo-16-[(2-phenylacetyl)amino]-8-oxa-14,20-diazatetracyclo[20.3.1.0^2,7.0^10,14]hexacosa-1(26),2,4,6,22,24-hexaen-12-yl]-2-(2-naphthyl)acetamide] | 4.28 | 97 | 3.18 | 87 | – | –
4 | CN1CCC[C@H](NC(=O)c2ccccc2)C(=O)N2C[C@@H](NC(=O)Cc3ccc4ccccc4c3)C[C@H]2COc2ccccc2-c2cccc(c2)C1=O [Ex. 26, N-[(10S,12S,16S)-20-methyl-12-{[2-(2-naphthyl)acetyl]amino}-15,21-dioxo-8-oxa-14,20-diazatetracyclo[20.3.1.0^2,7.0^10,14]hexacosa-1(26),2,4,6,22,24-hexaen-16-yl]benzamide] | 4.07 | 98 | 3.83 | 81 | – | –
5 | CN1CC[C@H](NC(=O)Cc2ccc3ccccc3c2)C(=O)N2C[C@@H](O)C[C@H]2COc2ccsc2-c2cc(n(C)n2)C1=O [Ex. 265, N-[(9S,11S,15S)-11-hydroxy-18,21-dimethyl-14,19-dioxo-7-oxa-3-thia-13,18,21,22-tetraazatetracyclo[18.2.1.0^2,6.0^9,13]tricosa-1(22),2(6),4,20(23)-tetraen-15-yl]-2-(2-naphthyl)acetamide] | – | – | – | – | 84 | EC50 [4]: 0.63 µM
6 | CN1CC[C@H](NC(=O)Cc2cccc3ccccc23)C(=O)N2C[C@@H](O)C[C@H]2COc2ccsc2-c2cc(n(C)n2)C1=O [Ex. 267, N-[(9S,11S,15S)-11-hydroxy-18,21-dimethyl-14,19-dioxo-7-oxa-3-thia-13,18,21,22-tetraazatetracyclo[18.2.1.0^2,6.0^9,13]tricosa-1(22),2(6),4,20(23)-tetraen-15-yl]-2-(1-naphthyl)acetamide] | – | – | – | – | 61 | –
7 | CO[C@H]1C[C@H]2COc3ccsc3-c3cc(n(C)n3)C(=O)N(C)CC[C@H](NC(=O)Cc3ccc4ccccc4c3)C(=O)N2C1 [Ex. 275, N-[(9S,11S,15S)-11-methoxy-18,21-dimethyl-14,19-dioxo-7-oxa-3-thia-13,18,21,22-tetraazatetracyclo[18.2.1.0^2,6.0^9,13]tricosa-1(22),2(6),4,20(23)-tetraen-15-yl]-2-(2-naphthyl)acetamide] | – | – | – | – | 60 | EC50 [4]: 0.78 µM
8 | CN1CC[C@H](NCCc2ccc3ccccc3c2)C(=O)N2C[C@@H](O)C[C@H]2COc2ccsc2-c2cc(n(C)n2)C1=O [Ex. 282, (9S,11S,15S)-11-hydroxy-18,21-dimethyl-15-{[2-(2-naphthyl)ethyl]amino}-7-oxa-3-thia-13,18,21,22-tetraazatetracyclo[18.2.1.0^2,6.0^9,13]tricosa-1(22),2(6),4,20(23)-tetraene-14,19-dione] | – | – | – | – | 39 | –
